US8618068B2, “Methods and low dose regimens for treating red blood cell disorders” (priority 2009, dated 2013)

How the values were obtained:
γ globin chain = γ globin chain protein synthesis in anemic baboons; type: in vivo; conditions: mean of three animals
Procedure: Expression of γ-globin and erythroid cell production was evaluated in a primate model in which baboons are phlebotomized on a daily basis to simulate the chronic RBC destruction associated with hemoglobinopathies. In this model, baboons, aged 2 to 3 years, had 2.5 to 7 mL/kg of blood withdrawn daily, and the volume replaced with an identical volume of normal saline. Hemoglobin levels were lowered relative to control levels, but were maintained between 6.5 to 7.5 g/dL, the level necessary for the modulation of globin genes in this animal species. The animals were supplemented with iron dextran and folic acid. The phlebotomy regimen effectively exchanged the animals' total blood volume every 10 to 20 days.
Globin chain protein synthesis was measured in DMB treated animals using ^3H-leucine-labeled reticulocytes before and 2 and 4 days after treatment. Complete blood counts and reticulocyte counts were monitored 3 times per week and plasma concentrations of the test article was determined. DMB was administered intravenously (IV, daily) or orally via nasogastric gavage under light anesthesia (on 3 alternating days per week for up to 6 weeks), on a dose-escalation schedule with starting doses of 500 to 800 mg/kg. If γ globin induction was observed, lower doses (40-200 mg/kg) were tested. Recombinant human erythropoietin (rhu-EPO) was also administered in separate treatment courses to 2 baboons at doses of 300 U/kg three times per week subcutaneously as a positive control for the erythropoietic effects of DMB. Treatments were performed in individual baboons.
Induction of γ globin chain expression was evaluated by measuring γ globin protein synthesis.

CYP2C9 = target: T1, CYP2C9 (Homo sapiens, UniProt P11712); experiment: Cytochrome P450 inhibition in human hepatic microsomes; type: in vitro ADME
T1 construct: from tissue; host or cells: human hepatic microsomes
Procedure: (§1) The inhibitory potential of DMB on the human cytochrome P450 activities involved in the metabolism of phenacetin O-deethylase (CYP1A2), bupropion hydroxylase (CYP2B6), amodiaquine N-deethylase (CYP2C8), diclofenac 4′-hydroxylase (CYP2C9), S-mephenyloin 4′-hydroxylase (CYP2C19), bufuralol 1′-hydroxylase (CYP2D6), testosterone 6β-hydroxylase (CYP3A), and midazolam 1′-hydroxylase (CYP3A) was assessed in vitro using human hepatic microsomes. Microsomes were incubated with isoenzyme-selective substrates at concentrations approximating the Km value in the absence and presence of DMB (at concentrations ranging from 0.1 to […]). The extent of inhibition was assessed by comparing activities from control and DMB-treated microsomes. […] Percent activity remaining was high for all cytochrome P450 assays with 80% activity remaining compared with control activities.

CYP2B6 = target: T2, CYP2B6 (Homo sapiens, UniProt P20813); experiment: as above; type: in vitro ADME
T2 construct: from tissue; host or cells: human hepatic microsomes
Procedure: as §1

CYP2D6 = target: T3, CYP2D6 (Homo sapiens, UniProt P10635); experiment: as above; type: in vitro ADME
T3 construct: from tissue; host or cells: human hepatic microsomes
Procedure: as §1

CYP2C19 = target: T4, CYP2C19 (Homo sapiens, UniProt P33261); experiment: as above; type: in vitro ADME
T4 construct: from tissue; host or cells: human hepatic microsomes
Procedure: as §1

CYP3A = experiment: as above; type: in vitro ADME
Procedure: as §1

CYP1A2 = target: T5, CYP1A2 (Homo sapiens, UniProt P05177); experiment: as above; type: in vitro ADME
T5 construct: from tissue; host or cells: human hepatic microsomes
Procedure: as §1

CYP2C8 = target: T6, CYP2C8 (Homo sapiens, UniProt P10632); experiment: as above; type: in vitro ADME
T6 construct: from tissue; host or cells: human hepatic microsomes
Procedure: as §1

[1] = Phase 2 trial in thalassemia intermedia patients, safety; type: in vivo, human
Procedure: A randomized, doubled blind, placebo-controlled, multiple ascending dose Phase I/II trial was conducted in 21 adult patients with beta thalassemia intermedia, including 14 patients with HbE/β^0 thalassemia from Thailand and 7 patients with β^+/β^0 thalassemia (including 12 different beta globin gene mutations). Study medication was taken as a single daily dose of DMB for 8 weeks followed minimally by a 4 week break and follow-up period. Four ascending dose levels (10, 20, 30, and 40 mg/kg/day) were sequentially evaluated in 4 dose level cohorts after the preceding dose and schedule were determined safe by an independent and unblinded Safety Monitoring Committee.
All treatment groups had two placebo patients; placebo patients in the first dose group were randomized to treatment in the second dose group. Ten patients in Thailand (all HbE type) were treated with 10 mg/kg (8 active/2 placebo) followed by eight patients in Thailand who were treated followed by 30 mg/kg (6 active/2 placebo). Eleven patients (4 That, 7 Lebanese) were treated with 20 mg/kg followed by 40 mg/kg (9 active [6 Lebanese/3 That]/2 placebo). Patients ranged in age from 17 to 49 with a median age of 31 and were comprised for 16 females and 5 males.
Patients were monitored every 2 weeks for laboratory studies, physical examinations, and adverse events. Further, patients were followed for hematologic parameters primarily focusing on hemoglobin and fetal hemoglobin (HbF). In addition, pharmacokinetic samples were obtained on Day 0 and 13, at pre-dose and 2, 4, 6, 8, 12, and 24 hours post-dosing. Hemoglobin was measured at each site using standard hematology equipment. HbF was measured using Varian HPLC. […] Adverse events in treated subjects included headache, upper respiratory infection, pyrexia, fatigue, nausea, and dizziness, but the rates of such events were not markedly different from those observed in the placebo-treated subjects.

[2] = compared with control activities

T1 sequence (P11712 whole entry): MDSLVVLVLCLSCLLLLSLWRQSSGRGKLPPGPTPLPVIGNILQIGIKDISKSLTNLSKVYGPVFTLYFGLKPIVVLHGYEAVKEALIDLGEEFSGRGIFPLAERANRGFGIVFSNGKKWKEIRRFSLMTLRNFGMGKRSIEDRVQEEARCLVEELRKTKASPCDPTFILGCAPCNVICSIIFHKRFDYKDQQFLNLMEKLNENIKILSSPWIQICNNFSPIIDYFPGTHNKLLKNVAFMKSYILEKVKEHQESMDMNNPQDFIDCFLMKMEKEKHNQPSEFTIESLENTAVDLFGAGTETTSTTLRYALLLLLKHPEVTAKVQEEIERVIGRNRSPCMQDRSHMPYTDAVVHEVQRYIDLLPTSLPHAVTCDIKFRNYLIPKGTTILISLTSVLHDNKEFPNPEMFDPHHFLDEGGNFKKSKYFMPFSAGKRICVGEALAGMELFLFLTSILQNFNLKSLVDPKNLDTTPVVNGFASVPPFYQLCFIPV
T2 sequence (P20813 whole entry): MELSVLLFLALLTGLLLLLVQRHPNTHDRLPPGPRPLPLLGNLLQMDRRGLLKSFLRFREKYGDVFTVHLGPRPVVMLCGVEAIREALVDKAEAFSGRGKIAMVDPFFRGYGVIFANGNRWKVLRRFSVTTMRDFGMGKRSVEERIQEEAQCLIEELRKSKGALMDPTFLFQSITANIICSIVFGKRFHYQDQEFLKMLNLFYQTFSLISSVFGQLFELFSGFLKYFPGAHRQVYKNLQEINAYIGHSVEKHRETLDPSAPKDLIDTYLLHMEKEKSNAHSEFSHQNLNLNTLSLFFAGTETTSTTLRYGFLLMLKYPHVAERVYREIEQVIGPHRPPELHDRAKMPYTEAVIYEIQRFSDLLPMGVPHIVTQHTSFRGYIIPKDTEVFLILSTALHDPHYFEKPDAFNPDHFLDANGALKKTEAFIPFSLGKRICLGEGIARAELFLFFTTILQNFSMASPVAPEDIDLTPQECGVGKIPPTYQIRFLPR
T4 sequence (P33261 whole entry): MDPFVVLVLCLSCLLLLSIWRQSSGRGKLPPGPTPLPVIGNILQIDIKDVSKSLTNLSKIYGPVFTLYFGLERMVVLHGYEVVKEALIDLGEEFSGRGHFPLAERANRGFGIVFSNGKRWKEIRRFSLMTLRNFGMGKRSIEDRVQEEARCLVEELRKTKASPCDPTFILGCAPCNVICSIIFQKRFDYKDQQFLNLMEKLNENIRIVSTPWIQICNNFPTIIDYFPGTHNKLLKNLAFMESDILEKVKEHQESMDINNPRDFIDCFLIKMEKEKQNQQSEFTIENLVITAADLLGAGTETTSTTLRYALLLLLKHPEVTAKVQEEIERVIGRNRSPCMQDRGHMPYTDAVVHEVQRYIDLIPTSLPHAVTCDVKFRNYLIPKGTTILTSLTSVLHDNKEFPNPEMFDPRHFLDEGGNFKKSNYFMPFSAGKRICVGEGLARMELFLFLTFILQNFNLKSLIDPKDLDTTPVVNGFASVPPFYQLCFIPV
T6 sequence (P10632 whole entry): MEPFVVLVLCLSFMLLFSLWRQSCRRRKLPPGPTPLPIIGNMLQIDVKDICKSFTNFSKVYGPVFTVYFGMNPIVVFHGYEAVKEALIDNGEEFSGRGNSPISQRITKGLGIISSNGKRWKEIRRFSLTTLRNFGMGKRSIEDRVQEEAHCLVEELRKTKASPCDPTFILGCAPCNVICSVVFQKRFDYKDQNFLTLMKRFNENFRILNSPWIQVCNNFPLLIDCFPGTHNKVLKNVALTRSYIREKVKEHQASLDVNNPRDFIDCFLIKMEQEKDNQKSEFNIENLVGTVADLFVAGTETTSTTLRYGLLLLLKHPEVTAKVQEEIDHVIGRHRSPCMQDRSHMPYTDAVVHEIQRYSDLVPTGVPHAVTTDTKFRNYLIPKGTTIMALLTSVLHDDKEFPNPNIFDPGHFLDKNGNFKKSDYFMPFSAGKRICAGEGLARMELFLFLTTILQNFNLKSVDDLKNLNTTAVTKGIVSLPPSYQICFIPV
T5 sequence (P05177 whole entry): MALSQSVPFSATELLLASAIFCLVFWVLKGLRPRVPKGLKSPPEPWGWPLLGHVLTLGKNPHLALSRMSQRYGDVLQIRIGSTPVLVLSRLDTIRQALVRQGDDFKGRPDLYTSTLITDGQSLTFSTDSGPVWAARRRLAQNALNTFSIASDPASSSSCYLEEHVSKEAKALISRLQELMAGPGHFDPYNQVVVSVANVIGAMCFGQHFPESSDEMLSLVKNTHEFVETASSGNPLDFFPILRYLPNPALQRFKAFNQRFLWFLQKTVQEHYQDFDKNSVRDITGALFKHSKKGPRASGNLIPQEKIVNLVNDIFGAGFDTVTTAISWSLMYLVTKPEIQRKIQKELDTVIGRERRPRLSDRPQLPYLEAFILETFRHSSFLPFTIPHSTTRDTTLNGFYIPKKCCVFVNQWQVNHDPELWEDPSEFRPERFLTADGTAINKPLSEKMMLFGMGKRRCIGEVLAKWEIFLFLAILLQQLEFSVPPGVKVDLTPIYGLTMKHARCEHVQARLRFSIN
T3 sequence (P10635 whole entry): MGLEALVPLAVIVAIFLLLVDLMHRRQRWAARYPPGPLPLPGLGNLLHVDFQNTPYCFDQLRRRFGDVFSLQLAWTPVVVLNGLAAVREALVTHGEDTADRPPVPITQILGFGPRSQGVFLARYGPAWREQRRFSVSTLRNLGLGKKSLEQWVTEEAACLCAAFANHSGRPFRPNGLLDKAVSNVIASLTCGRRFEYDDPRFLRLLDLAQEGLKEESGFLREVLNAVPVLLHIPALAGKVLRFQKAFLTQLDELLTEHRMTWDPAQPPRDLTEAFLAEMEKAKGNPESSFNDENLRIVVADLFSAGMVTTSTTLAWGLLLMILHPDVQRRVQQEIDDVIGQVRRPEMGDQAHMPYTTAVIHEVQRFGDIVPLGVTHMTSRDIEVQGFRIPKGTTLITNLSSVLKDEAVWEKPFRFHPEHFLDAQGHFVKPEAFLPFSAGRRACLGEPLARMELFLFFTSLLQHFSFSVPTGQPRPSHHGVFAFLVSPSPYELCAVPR

CCC(C)(C)C(=O)[O-].[Na+] [DMB, Sodium 2,2-dimethylbutyrate]
Increase % γ Globin Chain Synthesis (γ globin chain): 6.6%
Increase Fold (γ globin chain synthesis) (γ globin chain): 2.9
% γ Globin Chain Synthesis, Treatment (γ globin chain; baseline 3.4): 10.0%
inhibition of diclofenac 4′-hydroxylase (CYP2C9) (CYP2C9; DMB up to 300 μM): no significant inhibition
Percent activity remaining, diclofenac 4′-hydroxylase (CYP2C9) (CYP2C9; [2]): 80%
inhibition of bupropion hydroxylase (CYP2B6) (CYP2B6; DMB up to 300 μM): no significant inhibition
Percent activity remaining, bupropion hydroxylase (CYP2B6) (CYP2B6; [2]): 80%
inhibition of bufuralol 1′-hydroxylase (CYP2D6) (CYP2D6; DMB up to 300 μM): no significant inhibition
Percent activity remaining, bufuralol 1′-hydroxylase (CYP2D6) (CYP2D6; [2]): 80%
inhibition of S-mephenyloin 4′-hydroxylase (CYP2C19) (CYP2C19; DMB up to 300 μM): no significant inhibition
Percent activity remaining, S-mephenyloin 4′-hydroxylase (CYP2C19) (CYP2C19; [2]): 80%
inhibition of midazolam 1′-hydroxylase (CYP3A) (CYP3A; DMB up to 300 μM): no significant inhibition
inhibition of testosterone 6β-hydroxylase (CYP3A) (CYP3A; DMB up to 300 μM): no significant inhibition
Percent activity remaining, midazolam 1′-hydroxylase (CYP3A) (CYP3A; [2]): 80%
Percent activity remaining, testosterone 6β-hydroxylase (CYP3A) (CYP3A; [2]): 80%
inhibition of phenacetin O-deethylase (CYP1A2) (CYP1A2; DMB up to 300 μM): no significant inhibition
Percent activity remaining, phenacetin O-deethylase (CYP1A2) (CYP1A2; [2]): 80%
inhibition of amodiaquine N-deethylase (CYP2C8) (CYP2C8; DMB up to 300 μM): no significant inhibition
Percent activity remaining, amodiaquine N-deethylase (CYP2C8) (CYP2C8; [2]): 80%
Dizziness ([1]; 10 mg/kg): 2 (25) n (%)
Fatigue ([1]; 10 mg/kg): 1 (13) n (%)
Headache ([1]; 10 mg/kg): 5 (63) n (%)
Nausea ([1]; 10 mg/kg): 0 n (%)
Pyrexia ([1]; 10 mg/kg): 3 (38) n (%)
Serious adverse event: Palpitations ([1]; 10 mg/kg): 1 (13) 10 mg/kg n (%)
Treatment Related? (Palpitations) ([1]; 10 mg/kg): Not related to treatment
Upper Respiratory Tract Infection ([1]; 10 mg/kg): 5 (63) n (%)
subjects who discontinued study medication due to anemia ([1]; 10 mg/kg, considered not related to study medication): Two
Dizziness ([1]; 20 mg/kg): 2 (22) n (%)
Fatigue ([1]; 20 mg/kg): 0 n (%)
Headache ([1]; 20 mg/kg): 3 (33) n (%)
Nausea ([1]; 20 mg/kg): 2 (22) n (%)
Pyrexia ([1]; 20 mg/kg): 0 n (%)
Serious adverse event: Suprapubic Pain ([1]; 20 mg/kg): 1 (11) 20 mg/kg n (%)
Treatment Related? (Suprapubic Pain) ([1]; 20 mg/kg): Unlikely related
Upper Respiratory Tract Infection ([1]; 20 mg/kg): 2 (22) n (%)
Dizziness ([1]; 30 mg/kg): 0 n (%)
Fatigue ([1]; 30 mg/kg): 0 n (%)
Headache ([1]; 30 mg/kg): 2 (33) n (%)
Nausea ([1]; 30 mg/kg): 0 n (%)
Pyrexia ([1]; 30 mg/kg): 2 (33) n (%)
Upper Respiratory Tract Infection ([1]; 30 mg/kg): 1 (17) n (%)
Dizziness ([1]; 40 mg/kg): 1 (11) n (%)
Fatigue ([1]; 40 mg/kg): 4 (44) n (%)
Headache ([1]; 40 mg/kg): 1 (11) n (%)
Nausea ([1]; 40 mg/kg): 3 (33) n (%)
Pyrexia ([1]; 40 mg/kg): 1 (11) n (%)
Serious adverse event: Gastritis ([1]; 40 mg/kg): 1 (11) 40 mg/kg n (%)
Treatment Related? (Gastritis) ([1]; 40 mg/kg): Not related to treatment
Upper Respiratory Tract Infection ([1]; 40 mg/kg): 1 (11) n (%)
tolerability ([1]; 10 to 40 mg/kg/day, 8 weeks): well tolerated
Serious adverse event: Gastroenteritis ([1]; HQK-1001 groups): 0 n (%)
Serious adverse event: Upper Respiratory Infection ([1]; HQK-1001 groups): 0 n (%)
